Tested on: 817829-284-R-J1-PDC complex spheroids, viability
Experiment: Anticancer human tumor 817829-284-R-J1-PDC patient-derived colon adenocarcinoma cell line growth inhibition [GQUAD]
Settings: for IC50: curve of first compound; for viability, T/C: stronger effect = lower value; active means viability on the fitted dose curve at most 10% of control; inactive means the rest
In short: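 Tumor cells were grown as complex spheroids with HUVEC endothelial cells and mesenchymal stem cells as stroma. G-quadruplex stabilizers were combined with targeted agents over half-log dilutions from near the clinical Cmax, or from 10 microM.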

[1] = second compound 0.0316 µM, first compound 0.0316 µM
[2] = second compound 0.0316 µM, first compound 0.1 µM
[3] = second compound 0.0316 µM, first compound 0.316 µM
[4] = second compound 0.0316 µM, first compound 1 µM
[5] = second compound 0.0316 µM, first compound 3.16 µM
[6] = second compound 0.0316 µM, first compound 10 µM
[7] = second compound 0.1 µM, first compound 0.0316 µM
[8] = second compound 0.1 µM, first compound 0.1 µM
[9] = second compound 0.1 µM, first compound 0.316 µM
[10] = second compound 0.1 µM, first compound 1 µM
[11] = second compound 0.1 µM, first compound 3.16 µM
[12] = second compound 0.1 µM, first compound 10 µM
[13] = second compound 0.316 µM, first compound 0.0316 µM
[14] = second compound 0.316 µM, first compound 0.1 µM
[15] = second compound 0.316 µM, first compound 0.316 µM
[16] = second compound 0.316 µM, first compound 1 µM
[17] = second compound 0.316 µM, first compound 3.16 µM
[18] = second compound 0.316 µM, first compound 10 µM
[19] = second compound 1 µM, first compound 0.0316 µM
[20] = second compound 1 µM, first compound 0.1 µM
[21] = second compound 1 µM, first compound 0.316 µM
[22] = second compound 1 µM, first compound 1 µM
[23] = second compound 1 µM, first compound 3.16 µM
[24] = second compound 1 µM, first compound 10 µM
[25] = second compound 3.16 µM, first compound 0.0316 µM
[26] = second compound 3.16 µM, first compound 0.1 µM
[27] = second compound 3.16 µM, first compound 0.316 µM
[28] = second compound 3.16 µM, first compound 1 µM
[29] = second compound 3.16 µM, first compound 3.16 µM
[30] = second compound 3.16 µM, first compound 10 µM
[31] = second compound 10 µM, first compound 0.0316 µM
[32] = second compound 10 µM, first compound 0.1 µM
[33] = second compound 10 µM, first compound 0.316 µM
[34] = second compound 10 µM, first compound 1 µM
[35] = second compound 10 µM, first compound 3.16 µM
[36] = second compound 10 µM, first compound 10 µM
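Further: spheroids exposed to agents for 7 days before readout.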
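Wherever viability, T/C is given: percent viability relative to DMSO vehicle control taken as 100%.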

C=CC(=O)N1CCN(c2nc(=O)n(-c3c(C)ccnc3C(C)C)c3nc(-c4c(O)cccc4F)c(F)cc23)C(C)C1 (stereo unspecified) + Cc1cnc(CNC(=O)c2c(=O)c3ccc(N4CCCN(C)CC4)nc3n3c2sc2ccccc23)cn1
7980 nM: IC50 (second compound 0.0316 µM)
inactive: viability, T/C [1] 87.4% | viability, T/C [2] 59.1% | viability, T/C [3] 90.8% | viability, T/C [4] 55.7% | viability, T/C [5] 76.5% | viability, T/C [6] 44.3% | viability, T/C [7] 34.2% | viability, T/C [8] 38.1% | viability, T/C [9] 30.2% | viability, T/C [10] 34.2% | viability, T/C [11] 29.9% | viability, T/C [12] 26.8% | viability, T/C [13] 26.6% | viability, T/C [14] 28.8% | viability, T/C [15] 28.4% | viability, T/C [16] 24.9% | viability, T/C [17] 29.5% | viability, T/C [18] 20.5% | viability, T/C [19] 18.8% | viability, T/C [20] 27.1% | viability, T/C [21] 22.6% | viability, T/C [22] 21.1% | viability, T/C [23] 24.3% | viability, T/C [24] 19.6% | viability, T/C [25] 21.8% | viability, T/C [26] 21.3% | viability, T/C [27] 22.5% | viability, T/C [28] 19.1% | viability, T/C [29] 16.7% | viability, T/C [30] 16.9%
active: viability, T/C [31] 0.19% | viability, T/C [32] 0.21% | viability, T/C [33] 0.19% | viability, T/C [34] 0.19% | viability, T/C [35] 0.2% | viability, T/C [36] 0.19%
< 31.6 nM: IC50 (second compound 0.1 µM) | IC50 (second compound 0.316 µM) | IC50 (second compound 1 µM) | IC50 (second compound 3.16 µM) | IC50 (second compound 10 µM)

CC(C)n1c(=O)n(C)c2cnc3cc(F)c(-c4ccc(OCCCN5CCCCC5)nc4)cc3c21 + Cc1cnc(CNC(=O)c2c(=O)c3ccc(N4CCCN(C)CC4)nc3n3c2sc2ccccc23)cn1
< 31.6 nM: IC50 (second compound 0.0316 µM) | IC50 (second compound 0.1 µM) | IC50 (second compound 0.316 µM) | IC50 (second compound 1 µM) | IC50 (second compound 3.16 µM) | IC50 (second compound 10 µM)
active: viability, T/C [31] 0.15% | viability, T/C [32] 0.17% | viability, T/C [33] 0.18% | viability, T/C [34] 0.17% | viability, T/C [35] 0.18% | viability, T/C [36] 0.18%
inactive: viability, T/C [1] 37.7% | viability, T/C [2] 32.1% | viability, T/C [3] 36.5% | viability, T/C [4] 25.1% | viability, T/C [5] 26.6% | viability, T/C [6] 12.1% | viability, T/C [7] 30.4% | viability, T/C [8] 27.3% | viability, T/C [9] 31.3% | viability, T/C [10] 23.4% | viability, T/C [11] 22.9% | viability, T/C [12] 14.6% | viability, T/C [13] 23.7% | viability, T/C [14] 28.1% | viability, T/C [15] 23.1% | viability, T/C [16] 21.5% | viability, T/C [17] 24.4% | viability, T/C [18] 9.33% | viability, T/C [19] 19.7% | viability, T/C [20] 21.1% | viability, T/C [21] 21.9% | viability, T/C [22] 23.1% | viability, T/C [23] 24.2% | viability, T/C [24] 8.09% | viability, T/C [25] 16.6% | viability, T/C [26] 18.5% | viability, T/C [27] 19% | viability, T/C [28] 21% | viability, T/C [29] 18.8% | viability, T/C [30] 7.12%

CC1COCCN1c1cc(C2(O)CC3CCC(C2)O3)c2cnn(-c3ccn[nH]3)c2n1 (stereo unspecified) + Cc1cnc(CNC(=O)c2c(=O)c3ccc(N4CCCN(C)CC4)nc3n3c2sc2ccccc23)cn1
inactive: viability, T/C [1] 12.8% | viability, T/C [7] 12.9% | viability, T/C [8] 10.7% | viability, T/C [13] 13.1% | viability, T/C [19] 12.2% | viability, T/C [25] 12.6%
active: viability, T/C [2] 9.62% | viability, T/C [3] 7.9% | viability, T/C [4] 5.56% | viability, T/C [5] 5.19% | viability, T/C [6] 3.22% | viability, T/C [9] 8.05% | viability, T/C [10] 5.97% | viability, T/C [11] 4.94% | viability, T/C [12] 2.88% | viability, T/C [14] 9.42% | viability, T/C [15] 6.75% | viability, T/C [16] 6.83% | viability, T/C [17] 4.09% | viability, T/C [18] 2.08% | viability, T/C [20] 11.2% | viability, T/C [21] 6.62% | viability, T/C [22] 5.07% | viability, T/C [23] 3.93% | viability, T/C [24] 1.59% | viability, T/C [26] 9.23% | viability, T/C [27] 6.99% | viability, T/C [28] 3.25% | viability, T/C [29] 0.81% | viability, T/C [30] 0.2% | viability, T/C [31] 0.05% | viability, T/C [32] 0.1% | viability, T/C [33] 0.14% | viability, T/C [34] 0.08% | viability, T/C [35] 0.14% | viability, T/C [36] 0.12%
< 31.6 nM: IC50 (second compound 0.0316 µM) | IC50 (second compound 0.1 µM) | IC50 (second compound 0.316 µM) | IC50 (second compound 1 µM) | IC50 (second compound 3.16 µM) | IC50 (second compound 10 µM)

Source: PubChem BioAssay AID2060503 (Molecular Pharmacology Branch, DTP, NCI, 2025)
